The values below are quoted from earlier work in patent US9623047B2, “Composition and method for improving gastrointestinal health of equine” (Photo Finish Supplements, LLC, priority 2012, dated 2017).

Molecules are shown by their SMILES.

Series [1] relates to tooth pulp and periapical tissue. As to conditions: protective barrier in dental repair and treatment.

For `[Ca+2].[OH-].[OH-]` [Ca(OH)2, calcium hydroxide], in series [1], the anti-microbial action result is “powerful anti-microbial action” and the “effect on regrowth of damaged tissue” value is “significant stimulatory effect”. The “DNA synthesis of tooth pulp cells” value in the series with tooth pulp cells is “increase”.
